{"source": "patent US4801604A", "about": "(priority 1987, dated 1989)", "origin": "cited, not measured here", "settings": "phenytoin and structurally related drugs"}
{"molecule": "O=C1NC(=O)C(c2ccccc2)(c2ccccc2)N1", "note": "[phenytoin]", "values": [{"measurement": "Side effects (in words)", "result": "hyperplasia of the gums, cerebellar degeneration, gastric distress and serious skin rashes"}]}
